Measurements: patent publication US20260285918A1, “PEPTIDE FOR INHIBITING PROTEIN AGGREGATION AND PROTECTING PROTEIN ACTIVITY” (GWANGJU INSTITUTE OF SCIENCE AND TECHNOLOGY, priority 2023, published 2026)

Key:
[1] = system: LDH (Lactate dehydrogenase); assay: LDH activity protection after dehydration-rehydration and freeze-thaw; type: biochemical; conditions: for LDH activity protection rate: motif added at up to 1/10 of the BSA amount
Source text: Specifically, as illustrated in FIG. 6(c), considering the charge, hydrophobicity, and hydrophilicity of each amino acid in the CAHS motif 1 124-142 sequence, Y (Tyr), Q (Gln), E (Glu), V (Val), R (Arg), and L (Leu) in the amino acid sequence of CAHS motif 1, represented by SEQ ID NO: 2, were each mutated to alanine at one site.

[2] = system: LDH (Lactate dehydrogenase); assay: Inhibition of LDH aggregation (absorption at 340 nm, light scattering) after dehydration-rehydration and freeze-thaw
Source text: In other words, protein aggregation is the main cause of loss of protein activity. Protein aggregation is induced during the process of freezing and thawing (freeze and thaw) or in a water-free environment (dehydration), which causes loss of protein activity.

[3] = Solubility comparison after dialysis; type: physicochemical; conditions: 100 μM, dialysed at 4° C. for 18 hours in 20 mM potassium phosphate, 150 mM NaCl, pH 7.0
Method: First, CAHS motif 1 124-142 was obtained via peptide synthesis. CAHS motif 1 124-142 and the entire CAHS protein 1-229 were each dialysed at 4° C. for 18 hours in a buffer containing 20 mM potassium phosphate, 150 mM NaCl, pH 7.0, at a concentration of 100 μM, to compare their solubility.

[4] = system: LDH (Lactate dehydrogenase); assay: LDH activity protection with temperature and time (storage); type: biochemical; conditions: mass ratio 1:50
Method: CAHS motif 1 124-142, a stabilizer provided by the present invention, was mixed with LDH (lactate dehydrogenase), a target protein candidate for activity protection experiments, at a mass ratio of 1:50. The LDH protein activity was tested under various temperature and time conditions to determine the degree of protein activity protection.
Specifically, LDH protein activity was tested at temperatures of −20° C., 20° C., and 37° C., and at time intervals of 0, 1, 2, and 4 weeks.

Substance | LDH activity protection rate [1] | LDH aggregation ([2]; dehydration-rehydration) | solubility [3] | LDH activity protection compared between excipients [1] | LDH aggregation ([2]; freeze-thaw) | LDH activity preservation on storage ([4]; 20° C., 1 to 4 weeks) | LDH activity preservation on storage ([4]; 37° C., 1 to 4 weeks) | LDH activity preservation on storage ([4]; all conditions: −20° C., 20° C., 37° C., 0, 1, 2, 4 weeks) | LDH activity preservation on storage ([4]; −20° C., 1 to 4 weeks)
Bovine Serum Albumin [BSA, reference compound] | 50-60% | barely prevented aggregation |  |  |  |  |  |  | 
CAHS motif 1 124-142: 19-mer peptide, positions 124 to 142 of the CAHS protein, YRKQQEVEADKIRKELEKQ, obtained via peptide synthesis | 70-100% | reduced aggregation by more than half | excellent solubility in water | best protected the activity of the protein | effectively inhibits the aggregation of LDH | well preserved | well preserved | effectively preserve protein activity under all temperature and time conditions | well preserved
